In patent publication US8383690B2, “Pharmaceutical composition useful for the treatment of peptic ulcer diseases” (Council of Scientific and Industrial Research, priority 2006, dated 2013):
In brackets after ≈: the same amount, converted by molar mass. Like-named read-outs stand apart in the source and are kept apart here. Blank lines part the entries; values can stand above or below the compound they belong to.

Assays:
H. pylori [1] = assay: MIC/MBC by microbroth dilution assay against H. pylori; format: cell-based, Helicobacter pylori
B. cereus = assay: Antibacterial microbroth dilution assay in Muller Hinton broth (NCCLS); format: cell-based; conditions: Bacillus cereus, gram positive
Excerpt: (§1) Further, the antibacterial activity of oenothein C was examined against four aerobic bacteria (1 gram positive, B. cereus and 3 gram negative, S. typhi, E. coli & K. pneumoniae) by microbroth dilution assay in Muller Hinton broth essentially by following NCCLS (National Commmittee for Clinical Laboratory Standards) guideline.

S. typhi = assay: as above; format: cell-based; conditions: Salmonella enterica
Excerpt: as §1

K. pneumoniae = assay: as above; format: cell-based; conditions: Klebsiella pneumoniae, gram negative
Excerpt: as §1

E. coli = assay: as above; format: cell-based; conditions: Escherichia coli, gram negative
Excerpt: as §1

Solubility in solvents = format: physicochemical; conditions: methanol, acetone, DMSO
Protocol: The molecule oenothein C has been isolated from the flowers of the plant Woodfordia fruticosa, abundantly available in the Indian subcontinent. Dried flowers of Woodfordia fruticosa were extracted by soaking overnight with 1:1 methanol-water at room temperature. The process was repeated thrice. The combined extract was evaporated at 45° C. in a rotary evaporator to get the crude extract. This was partitioned between n-butanol and water. The layers were separately evaporated at 45° C. to obtain two fractions. The n-butanol soluble fraction was chromatographed repeatedly over diaion HP-20 and sephadex LH-20 columns following bioassay guided fractionation technique to obtain pure oenothein C as an off-white solid, amorphous in nature.

gastric H+,K+-ATPase = target: T1, gastric H+,K+-ATPase (Sus scrofa, UniProt P19156); assay: Anti gastric proton pump activity: H+,K+-ATPase inhibition in pig gastric membranes; format: biochemical
T1 construct: Pig gastric membranes enriched in apical and tubulovesicular membranes were prepared according to [59]; from tissue; host or cells: pig gastric mucosa membranes (apical and tubulovesicular)
T1 sequence (P19156 whole entry): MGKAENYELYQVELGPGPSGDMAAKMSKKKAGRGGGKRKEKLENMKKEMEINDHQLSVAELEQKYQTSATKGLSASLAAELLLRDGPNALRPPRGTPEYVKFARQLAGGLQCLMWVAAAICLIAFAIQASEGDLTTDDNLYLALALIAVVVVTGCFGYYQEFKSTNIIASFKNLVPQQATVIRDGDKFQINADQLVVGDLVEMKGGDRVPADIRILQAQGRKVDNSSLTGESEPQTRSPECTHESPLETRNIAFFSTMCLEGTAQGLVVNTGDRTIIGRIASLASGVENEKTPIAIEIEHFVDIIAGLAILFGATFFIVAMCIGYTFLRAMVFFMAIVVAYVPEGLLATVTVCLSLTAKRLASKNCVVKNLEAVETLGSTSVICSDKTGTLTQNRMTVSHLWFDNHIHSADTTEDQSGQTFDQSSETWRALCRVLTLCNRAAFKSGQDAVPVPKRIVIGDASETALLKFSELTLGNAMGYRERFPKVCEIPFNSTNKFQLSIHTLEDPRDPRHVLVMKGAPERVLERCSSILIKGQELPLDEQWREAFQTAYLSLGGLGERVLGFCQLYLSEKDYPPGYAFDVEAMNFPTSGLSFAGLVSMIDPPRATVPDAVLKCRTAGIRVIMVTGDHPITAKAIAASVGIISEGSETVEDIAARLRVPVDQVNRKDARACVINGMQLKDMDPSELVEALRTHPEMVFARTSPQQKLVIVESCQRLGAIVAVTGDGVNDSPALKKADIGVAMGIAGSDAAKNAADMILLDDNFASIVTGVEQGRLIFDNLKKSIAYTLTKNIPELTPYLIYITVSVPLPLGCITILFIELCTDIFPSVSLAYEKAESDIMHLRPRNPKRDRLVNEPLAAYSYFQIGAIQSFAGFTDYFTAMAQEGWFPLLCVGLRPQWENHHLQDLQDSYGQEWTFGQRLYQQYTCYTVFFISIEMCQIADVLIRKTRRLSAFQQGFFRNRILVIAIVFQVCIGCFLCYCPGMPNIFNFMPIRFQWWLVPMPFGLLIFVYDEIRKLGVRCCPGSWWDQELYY
T1 sequence (P18434 whole entry partner): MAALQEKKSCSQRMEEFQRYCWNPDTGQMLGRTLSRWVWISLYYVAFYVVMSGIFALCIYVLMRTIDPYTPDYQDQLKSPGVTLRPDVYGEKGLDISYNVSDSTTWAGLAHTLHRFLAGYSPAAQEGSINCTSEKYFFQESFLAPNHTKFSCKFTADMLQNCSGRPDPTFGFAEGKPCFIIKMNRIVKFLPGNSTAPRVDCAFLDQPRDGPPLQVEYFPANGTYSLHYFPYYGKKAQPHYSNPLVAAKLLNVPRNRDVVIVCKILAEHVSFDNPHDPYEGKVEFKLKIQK
Protocol: Pig gastric membranes enriched in apical and tubulovesicular membranes were prepared according to [59].
The H^+,K^+-ATPase activity was measured at 37° C. in a 1-mL reaction mixture containing 2 mM MgCl2, 2 mM ATP, 10 mM PIPES (pH 6.8), 10 mM KCl and 10-12 μg membrane protein. An otherwise complete assay mixture was preincubated for 10 min in presence and absence of different concentrations of oenothein C or omeprazole before initiating the reaction with ATP. After incubation for 10 min, the reaction was terminated by the addition of 1 mL ice-chilled TCA (14%).
K^+-stimulated activity, referred to as H^+,K^+-ATPase, was calculated as the difference between the activity in presence of Mg plus K^+ and the basal activity (Mg^+-ATPase) in presence of Mg^+ alone. […] Following enzymatic assay method, the inhibitory activity of oenothein C was assessed. The effects are quantitated in terms of percent inhibition of H^+,K^+-ATPase, and compared with that of omeprazole, a specific inhibitor of gastric H^+,K^+-ATPase.

H. pylori [2] = assay: Disc diffusion sensitivity assay against H. pylori; format: cell-based, Helicobacter pylori; conditions: for zone of inhibition at 100 µg/disc / zone of inhibition at 200 µg/disc: Helicobacter pylori, read-out: Inhibition Zone Diameter; for zone of inhibition at 100 µg/disc: 100 μg/disc; for zone of inhibition at 200 µg/disc: 200 μg/disc
Swiss albino mice = assay: Toxicity evaluation (mortality) in Swiss albino mice; format: in vivo
Protocol: The compound oenothein C was checked for mortality of the Swiss albino mice.
Maximum dosage of 250 mg/Kg body weight of compound oenothein C was given to 5 swiss albino mice via oral route.

[3] = Helicobacter pylori, ATCC43504, strain ATCC 43504
[4] = Helicobacter pylori, ATCC43504, strain ATCC 43504, read-out: MIC
[5] = Helicobacter pylori, ATCC43629, strain ATCC 43629
[6] = Helicobacter pylori, ATCC43629, strain ATCC 43629, read-out: MIC
[7] = Helicobacter pylori, ATCC49503, strain ATCC 49503
[8] = Helicobacter pylori, ATCC49503, strain ATCC 49503, read-out: MIC
[9] = Helicobacter pylori, NCTC26695, strain NCTC 26695
[10] = Helicobacter pylori, NCTC26695, strain NCTC 26695, read-out: MIC
[11] = Helicobacter pylori, strain 80A
[12] = Helicobacter pylori, strain 80A, read-out: MIC

Compound: O=C(O[C@H]1[C@H](O)[C@@H](CO)OC(O)[C@@H]1OC(=O)c1cc(O)c(O)c(O)c1Oc1cc2c(=O)oc3c(O)c(O)cc4c(=O)oc(c1O)c2c34)c1cc(O)c(O)c(O)c1 (mixture of isomers) [Oenothein C, D-Glucose 2-[2-[(5,10-dihydro-3,7,8-trihydroxy-5,10-dioxo[1]benzopyrano[5,4,3-cde][1]benzopyran-2-yl)oxy]-3,4,5-trihydroxy benzoate]-3-(3,4,5-trihydroxybenzoate)]
fold less competent in respect of metronidazole MIC values (H. pylori [1]; 5 strains): 2-20 fold | MBC (H. pylori [1]; [3]): > 50 µg/mL | MIC (H. pylori [1]; [4]): 25 µg/mL | MBC (H. pylori [1]; [5]): > 50 µg/mL | MIC (H. pylori [1]; [6]): 25 µg/mL | MBC (H. pylori [1]; [7]): 50 µg/mL | MIC (H. pylori [1]; [8]): 6.25 µg/mL | MBC (H. pylori [1]; [9]): 25 µg/mL | MIC (H. pylori [1]; [10]): 12.5 µg/mL | MBC (H. pylori [1]; [11]): 50 µg/mL | MIC (H. pylori [1]; [12]): 25 µg/mL | minimum inhibitory concentration (MIC), range over strains (H. pylori [1]; clinical and standard strains of H. pylori): 6.25 to 25.0 µg/mL | fold less potent as compared with clarithromycin and amoxycillin, based on MIC values (H. pylori [1]; different strains): 500-1000 fold | MIC (B. cereus): > 400 µg/mL | MIC (S. typhi): > 400 µg/mL | MIC (K. pneumoniae): > 400 µg/mL | MIC (E. coli): > 400 µg/mL | solubility (Solubility in solvents): soluble in methanol, acetone and DMSO | inhibition at 0.13 µM (gastric H+,K+-ATPase; 0.13 μM): 20 to 30% | inhibition at 0.64 µM (gastric H+,K+-ATPase; 0.64 μM): 50 to 70% | inhibition at 1.3 µM (gastric H+,K+-ATPase; 1.30 μM): 70 to 90% | IC50 (gastric H+,K+-ATPase; concentration range 0.13 to 1.3 μM, read-out: IC50 of gastric proton pump activity in vitro): 600 to 800 nM | degree of inhibition of the gastric proton pump (gastric H+,K+-ATPase; over 0.13-1.30 μM): 20-90% | degree of inhibition of gastric proton pump higher as compared with omeprazole (gastric H+,K+-ATPase; versus omeprazole, identical conditions): about 20 fold | inhibition zone diameter, range over strains (H. pylori [2]; 100-200 μg/disc, 6 different strains of H. pylori): 1.7-2.5 cm | zone of inhibition at 100 µg/disc (H. pylori [2]; strain 80A): 20 mm | zone of inhibition at 200 µg/disc (H. pylori [2]; strain 80A): 25 mm | zone of inhibition at 100 µg/disc (H. pylori [2]; strain 121A): 17 mm | zone of inhibition at 200 µg/disc (H. pylori [2]; strain 121A): 20 mm | Inhibition Zone Diameter (H. pylori [2]; strain ATCC 43504, 100 μg/disc): 2.0 cm | Inhibition Zone Diameter (H. pylori [2]; strain ATCC 43504, 200 μg/disc): 2.7 cm | Inhibition Zone Diameter (H. pylori [2]; strain ATCC 43629, 100 μg/disc): 1.9 cm | Inhibition Zone Diameter (H. pylori [2]; strain ATCC 43629, 200 μg/disc): 2.3 cm | Inhibition Zone Diameter (H. pylori [2]; strain ATCC 49503, 100 μg/disc): 1.7 cm | Inhibition Zone Diameter (H. pylori [2]; strain ATCC 49503, 200 μg/disc): 2.2 cm | Inhibition Zone Diameter (H. pylori [2]; strain NCTC 26695, 100 μg/disc): 2.0 cm | Inhibition Zone Diameter (H. pylori [2]; strain NCTC 26695, 200 μg/disc): 2.4 cm | health and behaviour under observation (Swiss albino mice; 250 mg/Kg body weight, oral route, 15 days): found to remain healthy, and no behavioral abnormality were noted | mortality (Swiss albino mice; 250 mg/Kg body weight, oral route, after 24 hours): no mortality | toxic effect (Swiss albino mice; single dose level up to 250 mg/kg body weight): does not show any toxic effect

Compound: CC1(C)S[C@@H]2[C@H](NC(=O)[C@H](N)c3ccc(O)cc3)C(=O)N2[C@H]1C(=O)O [Amoxycillin, amoxycillin]
MBC (H. pylori [1]; [3]): 0.05 µg/mL (≈ 0.137 µM) | MIC (H. pylori [1]; [4]): 0.025 µg/mL (≈ 0.0684 µM) | MBC (H. pylori [1]; [5]): 0.05 µg/mL (≈ 0.137 µM) | MIC (H. pylori [1]; [6]): 0.025 µg/mL (≈ 0.0684 µM) | MBC (H. pylori [1]; [7]): 0.05 µg/mL (≈ 0.137 µM) | MIC (H. pylori [1]; [8]): 0.0125 µg/mL (≈ 0.0342 µM) | MBC (H. pylori [1]; [9]): < 1 µg/mL | MIC (H. pylori [1]; [10]): 0.1 µg/mL (≈ 0.274 µM) | MBC (H. pylori [1]; [11]): 0.08 µg/mL (≈ 0.219 µM) | MIC (H. pylori [1]; [12]): 0.02 µg/mL (≈ 0.0547 µM) | MIC (H. pylori [1]; strain 80A): 0.02 µg/mL (≈ 0.0547 µM) | MIC (H. pylori [1]; strain ATCC 43504): 0.025 µg/mL (≈ 0.0684 µM) | MIC (H. pylori [1]; strain ATCC 43629): 0.025 µg/mL (≈ 0.0684 µM) | MIC (H. pylori [1]; strain ATCC 49503): 0.013 µg/mL (≈ 0.0356 µM) | MIC (H. pylori [1]; strain NCTC 26695): 0.1 µg/mL (≈ 0.274 µM)

Compound: CC[C@H]1OC(=O)[C@H](C)[C@@H](O[C@H]2C[C@@](C)(OC)[C@@H](O)[C@H](C)O2)[C@H](C)[C@@H](O[C@@H]2O[C@H](C)C[C@H](N(C)C)[C@H]2O)[C@](C)(OC)C[C@@H](C)C(=O)[C@H](C)[C@@H](O)[C@]1(C)O [Clarithromycin, clarithromycin]
MBC (H. pylori [1]; [3]): 0.05 µg/mL (≈ 0.0668 µM) | MIC (H. pylori [1]; [4]): 0.025 µg/mL (≈ 0.0334 µM) | MBC (H. pylori [1]; [5]): 0.1 µg/mL (≈ 0.134 µM) | MIC (H. pylori [1]; [6]): 0.05 µg/mL (≈ 0.0668 µM) | MBC (H. pylori [1]; [7]): 0.013 µg/mL (≈ 0.0174 µM) | MIC (H. pylori [1]; [8]): 0.00625 µg/mL (≈ 0.00836 µM) | MBC (H. pylori [1]; [9]): 0.1 µg/mL (≈ 0.134 µM) | MIC (H. pylori [1]; [10]): 0.0625 µg/mL (≈ 0.0836 µM) | MBC (H. pylori [1]; [11]): 0.04 µg/mL (≈ 0.0535 µM) | MIC (H. pylori [1]; [12]): 0.02 µg/mL (≈ 0.0267 µM) | MIC (H. pylori [1]; strain 80A): 0.02 µg/mL (≈ 0.0267 µM) | MIC (H. pylori [1]; strain ATCC 43504): 0.025 µg/mL (≈ 0.0334 µM) | MIC (H. pylori [1]; strain ATCC 43629): 0.050 µg/mL (≈ 0.0668 µM) | MIC (H. pylori [1]; strain ATCC 49503): 0.006 µg/mL (≈ 0.00802 µM) | MIC (H. pylori [1]; strain NCTC 26695): 0.063 µg/mL (≈ 0.0842 µM) | Inhibition Zone Diameter (H. pylori [2]; strain 80A, 10 ng/disc): 1.8 (10) cm | Inhibition Zone Diameter (H. pylori [2]; strain 121A, 10 ng/disc): 1.8 (10) cm | Inhibition Zone Diameter (H. pylori [2]; strain ATCC 43504, 40 ng/disc): 2.0 (40) cm | Inhibition Zone Diameter (H. pylori [2]; strain ATCC 43629, 100 ng/disc): 1.7 (100) cm | Inhibition Zone Diameter (H. pylori [2]; strain ATCC 49503, 5 ng/disc): 1.7 (5) cm | Inhibition Zone Diameter (H. pylori [2]; strain NCTC 26695, 400 ng/disc): 2.0 (400) cm

Compound: COC(=O)c1cc(O)c(O)c(O)c1 [methyl gallate]
activity in the MIC/MBC anti-H. pylori test (H. pylori [1]): did not show any activity | activity in the anti-proton pump test (gastric H+,K+-ATPase): did not show any activity | activity in the disc diffusion anti-H. pylori test (H. pylori [2]): did not show any activity

Continued, in another order:

MIC (H. pylori [1]; [4]): 50 µg/mL (≈ 292 µM) | MIC (H. pylori [1]; [6]): 1.56 µg/mL (≈ 9.11 µM) | MIC (H. pylori [1]; [8]): 1.56 µg/mL (≈ 9.11 µM) | MIC (H. pylori [1]; [10]): 1.56 µg/mL (≈ 9.11 µM)
Compound: Cc1ncc([N+](=O)[O-])n1CCO [Metronidazole, metronidazole]
MBC (H. pylori [1]; [3]): 100 µg/mL (≈ 584 µM) | MBC (H. pylori [1]; [5]): 6.25 µg/mL (≈ 36.5 µM) | MBC (H. pylori [1]; [9]): 10 µg/mL (≈ 58.4 µM) | MBC (H. pylori [1]; [11]): > 100 µg/mL

% Inhibition of H+,K+-ATPase (gastric H+,K+-ATPase; 3 μM): 10-30% | inhibition at 3 µM (gastric H+,K+-ATPase; 3 μM): ~20% | inhibition at 15 µM (gastric H+,K+-ATPase; 15 μM): 40 to 60% | inhibition at 30 µM (gastric H+,K+-ATPase; 30 μM): 80 to 90% | degree of inhibition of the gastric proton pump (gastric H+,K+-ATPase; over 3-30 μM): 10-90%
Compound: COc1ccc2[nH]c([S+]([O-])Cc3ncc(C)c(OC)c3C)nc2c1 (centres unmarked) [Omeprazole, omeprazole]
